Values quoted from earlier work, collected in PMC7832358, “Trending Topics on Coumarin and Its Derivatives in 2020” (Molecules, 2021).

Columns and labels:
hA3 receptors = system: hA3 receptors; parameters: method as in PMID 31738058; conditions: antagonists
[1] = system: streptozotocin (STZ)-induced cognitive dysfunction in rats
[2] = system: streptozotocin (STZ)-induced cognitive dysfunction in rats; remark: listed apart in the source
xanthine oxidase = target: xanthine oxidase; parameters: method as in PMID 32574739; conditions: read-out: xanthine oxidase inhibition IC50
B16F10 cells = system: B16F10 cells; parameters: method as in PMID 32574739
Ebolavirus (EBOV) = conditions: read-out: IC50 against EBOV
Marburg virus (MARV) = conditions: read-out: IC50 against MARV
tyrosinase = system: tyrosinase; parameters: method as in PMID 32652434
hMAO-B = conditions: read-out: hMAO-B inhibition IC50
reserpinized mice = reserpinized mice pre-treated with levodopa and benserazide
[3] = parameters: method as in PMID 31887477; conditions: inhibitor of thioredoxin reductases (TrxRs); read-out: antitumor activity IC50

O=c1oc2c(O)cccc2cc1-c1ccc(Br)cc1 [compound XX]
hA3 receptor affinity (hA3 receptors): low nanomolar range

O=c1ccc2ccc(O)cc2o1 [umbelliferone]
cognitive deficits in the Morris water maze and object recognition tests [1]: prevent cognitive deficits
activity of hippocampal AChE [2]: reduced
expression of NF-κB inhibitor (IκB-α) [2]: upregulating
glutathione content [2]: increasing
level of malondialdehyde [2]: reduced
level of proinflammatory cytokines [2]: reducing
overexpression of inflammatory markers (nuclear factor κB and cyclooxygenase II) [2]: inhibiting

COc1ccc(-c2cc3cc([N+](=O)[O-])ccc3oc2=O)cc1 [3-(4-methoxyphenyl)-6-nitrocoumarin]
IC50 (xanthine oxidase): 8400 nM
cytotoxicity in B16F10 cells (B16F10 cells): non-cytotoxic

Cc1c(Cc2ccc(OC(F)(F)F)cc2)c(=O)oc2cc(OCC(O)CN3CCC(C(N)=O)CC3)ccc12 (stereo not shown) [compound XVI]
IC50 (Ebolavirus (EBOV)): 500 nM
IC50 (Marburg virus (MARV)): 1200 nM

O=c1cc(OCc2cn(Cc3cocc(O)c3=O)nn2)c2ccccc2o1 [compound XXVI]
tyrosinase inhibitory activity (tyrosinase): sub-micromolar range

O=c1oc2cc(O)ccc2cc1-c1cc(Br)cs1 [3-(4′-bromothiophen-2′-yl)-7-hydroxycoumarin]
IC50 (hMAO-B): 140 nM
in vivo profile on locomotor activity (OFT) versus selegiline (reserpinized mice): slightly better in vivo profile than selegiline

COc1c2occc2cc2ccc(=O)oc12 [xanthotoxin]
cognitive deficits in the Morris water maze and object recognition tests [1]: prevent cognitive deficits
activity of hippocampal AChE [2]: reduced
expression of NF-κB inhibitor (IκB-α) [2]: upregulating
glutathione content [2]: increasing
level of malondialdehyde [2]: reduced
level of proinflammatory cytokines [2]: reducing

CCN(CC)c1ccc2cc(/C=C/C(=O)c3ccc(OC)c(O)c3)c(=O)oc2c1 [compound V]
IC50 [3]: 3600 nM
